We go through three molecules from patent US4341784A, “Naphthyridine derivatives” (priority 1979, dated 1982).

Values after ≈ are worked out from the molar mass of the structure shown. Where two headings read alike, the source gives them in different places.

For assay [1], the system named is Shigella flexneri 4a P-330. Briefly: In vitro antibacterial activity (MIC, agar dilution method). It is filed as cell-based. To be noted: 4AP330, read-out: minimum inhibitory concentration (MIC). The protocol: (§1) The minimum inhibitory concentrations (MIC, μg/ml) of the following compounds in vitro were measured by the agar dilution method of [Chemotherapy, Vol. 22, No. 16, page 1126 (1974)].

Assay [2] deals with Staphylococcus epidermidis No. 8. Described as above. To be noted: Staphylococcus epidermidis, NO.8, read-out: minimum inhibitory concentration (MIC). The format is cell-based. On the procedure: as §1
Assay [3] relates to Shigella flexneri 2a. The assay is described as above. It is filed as cell-based. To be noted: read-out: minimum inhibitory concentration (MIC). On the procedure: as §1
The subject of assay [4] is Klebsiella pneumoniae No. 13. The assay is described as above. It is filed as cell-based. On the procedure:
as §1

Assay [5] deals with Enterobacter cloacae P-2540. Described as above. The format is cell-based. The protocol: as §1
Assay [6] has as its system Salmonella typhimurium S-9. Described as above. It is filed as cell-based. To be noted: Salmonella enterica, read-out: minimum inhibitory concentration (MIC). On the procedure: as §1
For assay [7], the system named is Serratia marcescens IFO 3736. The assay is described as above. The format is cell-based. On the procedure: as §1
Assay [8] deals with Proteus morganii Kono. The description is as above. The format is cell-based. Particulars: Morganella morganii, read-out: minimum inhibitory concentration (MIC). The protocol: as §1
Assay [9] deals with Pseudomonas aeruginosa No. 12. Described as above. It is filed as cell-based. The protocol:
as §1

In assay [10] the test system is Proteus mirabilis P-2381. Described as above. It is filed as cell-based. The protocol: as §1
In assay [11] the test system is Pseudomonas aeruginosa Tsuchiijima. Described as above. The format is cell-based. To be noted: read-out: minimum inhibitory concentration (MIC). On the procedure:
as §1

Assay [12] has as its system Staphylococcus aureus No. 50774. Described as above. The format is cell-based. The protocol:
as §1

The test system of assay [13] is Staphylococcus aureus Smith. The description is as above. The format is cell-based. Particulars: read-out: minimum inhibitory concentration (MIC). On the procedure: as §1
The subject of assay [14] is Streptococcus pyogenes 65A. Described as above. Particulars: read-out: minimum inhibitory concentration (MIC). The format is cell-based. On the procedure:
as §1

For assay [15], the system named is Escherichia coli NIHJ JC-2. The assay is described as above. The format is cell-based. On the procedure: as §1
Assay [16] concerns Salmonella enteritidis No. 1891. Described as above. It is filed as cell-based. To be noted: Salmonella enterica, read-out: minimum inhibitory concentration (MIC). On the procedure:
as §1

Assay [17] deals with Escherichia coli P-5101. Described as above. It is filed as cell-based. The protocol:
as §1

In assay [18] the test system is Staphylococcus aureus 209P JC-1. The description is as above. The format is cell-based. Particulars: read-out: minimum inhibitory concentration (MIC). The protocol:
as §1

Assay [19] deals with Streptococcus faecalis P-2473. The assay is described as above. It is filed as cell-based. Particulars: Enterococcus faecalis, P2473, read-out: minimum inhibitory concentration (MIC). On the procedure: as §1
The subject of assay [20] is Corynebacterium pyogenes C-21. The description is as above. It is filed as cell-based. The protocol: as §1
Assay [21] deals with Escherichia coli P-140a. The assay is described as above. The format is cell-based. Particulars: read-out: minimum inhibitory concentration (MIC). On the procedure:
as §1

In assay [22] the test system is Staphylococcus aureus No. 80. The description is as above. It is filed as cell-based. To be noted: Staphylococcus aureus, NO.80, read-out: minimum inhibitory concentration (MIC). On the procedure:
as §1

Assay [23] has as its system Pseudomonas aeruginosa No. 12. The assay can be described thus: In vivo efficacy against systemic infections in mice (intraperitoneal infection). More on the design: species or system male mice (ddY). To be noted: NO.12, 168 h, po, twice, about 5 minutes and 6 hours after intraperitoneal infection, observed 7 days. The protocol:
(§2) Each of the solutions was orally administered to mice infected with each of test organisms under the conditions described below, and the medium effective doses (ED50) obtained are shown in Table II. Male mice (ddY) weighing about 20 g (4) Pseudomonas aeruginosa No. 12: Intraperitoneal infection with about 5×10^3 cells per mouse suspended in trypto-soy broth with 4% mucin. Twice, about 5 minutes and 6 hours after infection. |Escherichia coli P-5101 for 7 days |Pseudomonas aeruginosa No. 12 | The numerals in the table show ED50 (mg/kg). ED50 values were | calculated in accordance with the BehrensKaerber method (Arch. Exp. Path. | Pharm., 162, 480 (1931)). | po: oral administration.

Assay [24] deals with Escherichia coli P-5101. Described as above. Also noted: species or system male mice (ddY). Particulars: P5101, 168 h, po, twice, about 5 minutes and 6 hours after intraperitoneal infection, observed 7 days. On the procedure: as §2, with “(3) Escherichia coli P-5101:” for “(4) Pseudomonas aeruginosa No. 12:”, “9×10^6” for “5×10^3”, “days” for “days |Pseudomonas aeruginosa No. 12”

Setting [25] is: Klebsiella pneumoniae, NO.13, read-out: minimum inhibitory concentration (MIC).
[26] abbreviates: Enterobacter cloacae, P2540, read-out: minimum inhibitory concentration (MIC).
The mark [27] stands for this setting: Salmonella typhimurium S-9, agar dilution.
The mark [28] stands for this setting: Serratia marcescens, IFO3736, read-out: minimum inhibitory concentration (MIC).
Where [29] appears, read: Pseudomonas aeruginosa, NO.12, read-out: minimum inhibitory concentration (MIC).
[30] abbreviates: P2381, Proteus mirabilis P-2381, agar dilution, read-out: minimum inhibitory concentration (MIC).
[31] abbreviates: Escherichia coli, NIHJJC2, read-out: minimum inhibitory concentration (MIC).
Setting [32] is: Salmonella enteritidis No. 1891, agar dilution.
The mark [33] stands for this setting: C21, Corynebacterium pyogenes C-21, agar dilution, read-out: minimum inhibitory concentration (MIC).
[34] abbreviates: P140A, Escherichia coli P-140a, agar dilution.
[35] abbreviates: Staphylococcus aureus, NO.50774, read-out: minimum inhibitory concentration (MIC).
Setting [36] is: Escherichia coli, P5101, read-out: minimum inhibitory concentration (MIC).

For `CCn1cc(C(=O)O)c(=O)c2cc(F)c(N3CCCC3)nc21` [Compound C, 1-Ethyl-6-fluoro-1,4-dihydro-4-oxo-7-(1-pyrrolidinyl)-1,8-naphthyridine-3-carboxylic acid], the MIC in assay [1] is 3.13 µg/mL (≈ 10.3 µM); in [2], 0.39 µg/mL (≈ 1.28 µM); in [3], 1.56 µg/mL (≈ 5.11 µM); in [4] (setting [25]), 1.56 µg/mL (≈ 5.11 µM); in assay [5] (setting [26]), 1.56 µg/mL (≈ 5.11 µM); in assay [6] (setting [27]), 0.78 µg/mL (≈ 2.55 µM). Moreover, the MIC came out at 3.13 µg/mL (≈ 10.3 µM) in assay [7] (setting [28]); 1.56 µg/mL (≈ 5.11 µM) in assay [8]; 3.13 µg/mL (≈ 10.3 µM) in [9] (setting [29]); 6.56 µg/mL (≈ 21.5 µM) in assay [10] (setting [30]); 3.13 µg/mL (≈ 10.3 µM) in [11] (Pseudomonas aeruginosa); 0.2 µg/mL (≈ 0.655 µM) in assay [12] (Staphylococcus aureus No. 50774, agar dilution, read-out: minimum inhibitory concentration (MIC)). Moreover, the MIC came out at 0.39 µg/mL (≈ 1.28 µM) in assay [13] (Staphylococcus aureus Smith, agar dilution); 3.13 µg/mL (≈ 10.3 µM) in assay [14] (Streptococcus pyogenes, 65A); 1.56 µg/mL (≈ 5.11 µM) in assay [15] (setting [31]); 0.39 µg/mL (≈ 1.28 µM) in [16] (setting [32]); 0.78 µg/mL (≈ 2.55 µM) in assay [17] (P5101, Escherichia coli P-5101, agar dilution, read-out: minimum inhibitory concentration (MIC)); 0.39 µg/mL (≈ 1.28 µM) in assay [18] (Staphylococcus aureus 209P JC-1, agar dilution). Further, the MIC in assay [19] amounted to 6.25 µg/mL (≈ 20.5 µM); in [20] (setting [33]) it was 0.78 µg/mL (≈ 2.55 µM); in [21] (setting [34]) it was 0.78 µg/mL (≈ 2.55 µM); in [22], 0.2 µg/mL (≈ 0.655 µM). Besides, the ED50 (usually the dose at which the effect has come halfway, by size or by number of responders) in [23] is > 100 mg/kg; in [24] it was > 50 mg/kg.
In the case of `CCn1cc(C(=O)O)c(=O)c2ccc(C)nc21` [Compound D, 1-Ethyl-1,4-dihydro-7-methyl-4-oxo-1,8-naphthyridine-3-carboxylic acid], the MIC in assay [1] amounted to 3.13 µg/mL (≈ 13.5 µM); in [2], 25 µg/mL (≈ 108 µM); in [3] it was 6.25 µg/mL (≈ 26.9 µM); in assay [4] (setting [25]), 12.5 µg/mL (≈ 53.8 µM); in assay [5] (setting [26]), 6.25 µg/mL (≈ 26.9 µM); in assay [6] (TYPHIMURIUM), 3.13 µg/mL (≈ 13.5 µM). For the same molecule, the MIC is 6.25 µg/mL (≈ 26.9 µM) in assay [7] (setting [28]); 6.25 µg/mL (≈ 26.9 µM) in assay [8]; 200 µg/mL (≈ 861 µM) in assay [9] (setting [29]); 6.25 µg/mL (≈ 26.9 µM) in [10] (Proteus mirabilis, P2381, read-out: minimum inhibitory concentration (MIC)); 200 µg/mL (≈ 861 µM) in assay [11] (Pseudomonas aeruginosa); 50 µg/mL (≈ 215 µM) in [12] (setting [35]). Besides, the MIC in assay [13] (Staphylococcus aureus) is 25 µg/mL (≈ 108 µM); in [14] (Streptococcus pyogenes, 65A) it was > 200 µg/mL; in [15] (setting [31]), 12.5 µg/mL (≈ 53.8 µM); in assay [16] (ENTERITIDIS) it was 3.13 µg/mL (≈ 13.5 µM); in [17] (setting [36]), 3.13 µg/mL (≈ 13.5 µM); in [18] (Staphylococcus aureus, 209P), 100 µg/mL (≈ 431 µM). In addition, the MIC in assay [19] is > 200 µg/mL; in assay [20] (Corynebacterium pyogenes, C21, read-out: minimum inhibitory concentration (MIC)) it was > 200 µg/mL; in assay [21] (setting [34]) it was 1.56 µg/mL (≈ 6.72 µM); in assay [22], 25 µg/mL (≈ 108 µM).
`CCn1cc(C(=O)O)c(=O)c2cnc(N3CCCC3)nc21` [Compound E, 8-Ethyl-5,8-dihydro-5-oxo-2-(1-pyrrolidinyl)pyrido[2,3-d]pyrimidine-6-carboxylic acid]: the MIC in [1] was determined as 12.5 µg/mL (≈ 43.4 µM); in assay [2] it was 12.5 µg/mL (≈ 43.4 µM); in assay [3], 12.5 µg/mL (≈ 43.4 µM); in assay [4] (Klebsiella pneumoniae No. 13, agar dilution, read-out: minimum inhibitory concentration (MIC)), 25 µg/mL (≈ 86.7 µM); in assay [5] (P2540, Enterobacter cloacae P-2540, agar dilution, read-out: minimum inhibitory concentration (MIC)), 25 µg/mL (≈ 86.7 µM); in assay [6] (setting [27]), 25 µg/mL (≈ 86.7 µM). Further, the MIC in [7] (IFO3736, Serratia marcescens IFO 3736, agar dilution, read-out: minimum inhibitory concentration (MIC)) worked out at 50 µg/mL (≈ 173 µM); in assay [8] (Proteus morganii Kono, agar dilution) it was 25 µg/mL (≈ 86.7 µM); in [9] (Pseudomonas aeruginosa No. 12, agar dilution, read-out: minimum inhibitory concentration (MIC)), 100 µg/mL (≈ 347 µM); in [10] (setting [30]), 50 µg/mL (≈ 173 µM); in [11] (Pseudomonas aeruginosa Tsuchiijima, agar dilution), 100 µg/mL (≈ 347 µM); in assay [12] (setting [35]), 12.5 µg/mL (≈ 43.4 µM). The MIC in [13] (Staphylococcus aureus) is 12.5 µg/mL (≈ 43.4 µM); in assay [14] (Streptococcus pyogenes 65A, agar dilution) it was 200 µg/mL (≈ 694 µM); in [15] (NIHJJC2, Escherichia coli NIHJ JC-2, agar dilution, read-out: minimum inhibitory concentration (MIC)) it was 25 µg/mL (≈ 86.7 µM); in [16] (setting [32]), 25 µg/mL (≈ 86.7 µM); in [17] (setting [36]), 12.5 µg/mL (≈ 43.4 µM); in assay [18] (Staphylococcus aureus, 209P), 12.5 µg/mL (≈ 43.4 µM). In addition, the MIC in assay [19] was > 200 µg/mL; in [20] (setting [33]) it was 25 µg/mL (≈ 86.7 µM); in assay [21] (Escherichia coli) it was 12.5 µg/mL (≈ 43.4 µM); in assay [22], 12.5 µg/mL (≈ 43.4 µM).
